# Source: PubChem BioAssay AID248 (DTP/NCI, 2004)
# “And” between values parts separate entries of the source, which are not always exact repeats. Identical values can stand only once. Toxic doses and inconclusive results are not listed.
# Tested on: L1210 leukemia ip in BDF1 mice, survival T/C
# Assay: NCI In Vivo Anticancer Drug Screen. Data for tumor model L1210 Leukemia (intraperitoneal) in B6D2F1 (BDF1) mice
# Settings: endpoint: mean survival time, higher = longer survival
# Summary of the method: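 In this screen, tumor-bearing mice given compound are compared to those given vehicle, and their survival values are reported as a treated-to-control quotient.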
# [1] = dose: 100.0 mg/kg/injection, schedule: Q01DX009 (ip), vehicle: saline with Tween-80
# [2] = dose: 100.0 mg/kg/injection, schedule: Q04DX003 (ip), vehicle: Klucel (hydroxypropylcellulose) (HPC)
# [3] = dose: 200.0 mg/kg/injection, schedule: Q04DX003 (ip), vehicle: Klucel (hydroxypropylcellulose) (HPC)
# [4] = dose: 400.0 mg/kg/injection, schedule: Q01DX001 (ip), vehicle: carboxymethylcellulose (CMC)
# [5] = dose: 400.0 mg/kg/injection, schedule: Q04DX003 (ip), vehicle: Klucel (hydroxypropylcellulose) (HPC)
# [6] = dose: 100.0 mg/kg/injection, schedule: Q01DX001 (ip), vehicle: saline
# [7] = dose: 200.0 mg/kg/injection, schedule: Q01DX001 (ip), vehicle: saline
# [8] = dose: 400.0 mg/kg/injection, schedule: Q01DX001 (ip), vehicle: saline
# [9] = dose: 100.0 mg/kg/injection, schedule: Q01DX001 (ip), vehicle: carboxymethylcellulose (CMC)
# [10] = dose: 100.0 mg/kg/injection, schedule: Q01DX009 (ip), vehicle: saline
# [11] = dose: 200.0 mg/kg/injection, schedule: Q01DX009 (ip), vehicle: saline
# [12] = dose: 50.0 mg/kg/injection, schedule: Q01DX001 (ip), vehicle: carboxymethylcellulose (CMC)
# [13] = dose: 200.0 mg/kg/injection, schedule: Q01DX001 (ip), vehicle: carboxymethylcellulose (CMC)
smiles,measurement,setting,value
COC(=O)C1CC2c3ccccc3C1c1ccccc12 (stereo unspecified),T/C,[1],110 % of control
same,T/C,[2],108 % of control
same,T/C,"dose: 176.0 mg/kg/injection, schedule: Q01DX001 (ip), vehicle: carboxymethylcellulose (CMC)",96 % of control and 92 % of control
same,T/C,"dose: 200.0 mg/kg/injection, schedule: Q01DX009 (ip), vehicle: saline with Tween-80",89 % of control
same,T/C,[3],97 % of control
same,T/C,"dose: 264.0 mg/kg/injection, schedule: Q01DX001 (ip), vehicle: carboxymethylcellulose (CMC)",93 % of control
same,T/C,[4],95 % of control
same,T/C,"dose: 400.0 mg/kg/injection, schedule: Q01DX009 (ip), vehicle: saline with Tween-80",95 % of control
same,T/C,[5],93 % of control
same,T/C,"dose: 600.0 mg/kg/injection, schedule: Q01DX001 (ip), vehicle: carboxymethylcellulose (CMC)",98 % of control
O=C1C2CCN(CC2)C1CN1CCC(O)(c2ccc(Cl)cc2)CC1 (stereo unspecified),T/C,[2],104 % of control
same,T/C,[3],101 % of control
CC(=O)OC1=C(CC(C)C)C(=O)c2ccccc2C1=O,T/C,[6],104 % of control
same,T/C,[7],107 % of control
same,T/C,[8],103 % of control
Nc1nc(=S)c2nnn(C3OC(CO)C(O)C3O)c2[nH]1 (stereo unspecified),T/C,"dose: 100.0 mg/kg/injection, schedule: Q01DX001 (ip), vehicle: saline with Tween-80",104 % of control
same,T/C,"dose: 200.0 mg/kg/injection, schedule: Q01DX001 (ip), vehicle: saline with Tween-80",104 % of control
same,T/C,"dose: 400.0 mg/kg/injection, schedule: Q01DX001 (ip), vehicle: saline with Tween-80",90 % of control
O=C(Nc1cccc(C2=NCCN2)c1)Nc1cc(C(=O)Nc2ccc(C3=NCCN3)cc2)ccc1C(=O)Nc1ccc(C2=NCCN2)cc1,T/C,"dose: 1.88 mg/kg/injection, schedule: Q01DX Z (ip), vehicle: saline",121 % of control
same,T/C,"dose: 3.75 mg/kg/injection, schedule: Q01DX Z (ip), vehicle: saline",123 % of control
same,T/C,"dose: 3.75 mg/kg/injection, schedule: Q01DX Z (oral), vehicle: saline",98 % of control
same,T/C,"dose: 7.5 mg/kg/injection, schedule: Q01DX Z (ip), vehicle: saline",161 % of control
same,T/C,"dose: 7.5 mg/kg/injection, schedule: Q01DX Z (oral), vehicle: saline",104 % of control
same,T/C,"dose: 15.0 mg/kg/injection, schedule: Q01DX Z (oral), vehicle: saline",103 % of control
same,T/C,"dose: 30.0 mg/kg/injection, schedule: Q01DX Z (oral), vehicle: saline",101 % of control
same,T/C,"dose: 62.5 mg/kg/injection, schedule: Q01DX010 (oral), vehicle: saline",101 % of control
same,T/C,"dose: 125.0 mg/kg/injection, schedule: Q01DX010 (oral), vehicle: saline",108 % of control
same,T/C,"dose: 250.0 mg/kg/injection, schedule: Q01DX010 (oral), vehicle: saline",105 % of control
CCOC(=O)c1cnc(SC)nc1N/N=C/c1ccccc1,T/C,[2],100 % of control
same,T/C,[3],101 % of control
same,T/C,[5],103 % of control
Cc1c(CC=C(c2ccccc2)c2ccccc2)cccc1C[N+](C)(C)C,T/C,"dose: 5.0 mg/kg/injection, schedule: Q01DX001 (ip), vehicle: carboxymethylcellulose (CMC)",101 % of control
same,T/C,"dose: 10.0 mg/kg/injection, schedule: Q01DX001 (ip), vehicle: carboxymethylcellulose (CMC)",106 % of control
same,T/C,"dose: 20.0 mg/kg/injection, schedule: Q01DX001 (ip), vehicle: carboxymethylcellulose (CMC)",98 % of control
same,T/C,"dose: 40.0 mg/kg/injection, schedule: Q01DX001 (ip), vehicle: carboxymethylcellulose (CMC)",90 % of control
same,T/C,"dose: 80.0 mg/kg/injection, schedule: Q01DX001 (ip), vehicle: carboxymethylcellulose (CMC)",90 % of control
same,T/C,[9],93 % of control
Cc1coc(NS(=O)(=O)c2ccc(N=Nc3c(N)nc(N)nc3N)cc2)c1C,T/C,[6],97 % of control
same,T/C,[7],94 % of control
same,T/C,[8],97 % of control
CC(CCc1cccc2ccccc12)(C(=O)O)C(=O)O,T/C,"dose: 100.0 mg/kg/injection, schedule: Q01DX009 (ip), vehicle: saline sonified",92 % of control
same,T/C,[2],104 % of control
same,T/C,"dose: 200.0 mg/kg/injection, schedule: Q01DX009 (ip), vehicle: saline sonified",104 % of control
same,T/C,[3],100 % of control
same,T/C,[5],94 % of control
CC12CCN=C1c1ccc3cc(O)ccc3c1CC2 (stereo unspecified),T/C,"dose: 100.0 mg/kg/injection, schedule: Q04DX003 (sc), vehicle: steriod suspending solution",93 % of control
same,T/C,"dose: 200.0 mg/kg/injection, schedule: Q04DX003 (sc), vehicle: steriod suspending solution",107 % of control
same,T/C,"dose: 400.0 mg/kg/injection, schedule: Q04DX003 (sc), vehicle: steriod suspending solution",96 % of control
Cn1cnc([N+](=O)[O-])c1[Se]c1ncnc2c1c(C#N)cn2C1OC(CO)C(O)C1O (stereo unspecified),T/C,"dose: 6.25 mg/kg/injection, schedule: Q01DX009 (ip), vehicle: saline",111 % of control
same,T/C,"dose: 12.5 mg/kg/injection, schedule: Q01DX005 (ip), vehicle: saline",95 % of control
same,T/C,"dose: 12.5 mg/kg/injection, schedule: Q01DX009 (ip), vehicle: saline",113 % of control
same,T/C,"dose: 15.0 mg/kg/injection, schedule: Q01DX009 (ip), vehicle: saline",103 % of control
same,T/C,"dose: 25.0 mg/kg/injection, schedule: Q01DX005 (ip), vehicle: saline",111 % of control
same,T/C,"dose: 25.0 mg/kg/injection, schedule: Q01DX009 (ip), vehicle: saline",108 % of control and 117 % of control
same,T/C,"dose: 42.0 mg/kg/injection, schedule: Q01DX009 (ip), vehicle: saline",110 % of control
CCOC(=O)N1c2ccccc2C=CC1C#N (stereo unspecified),T/C,"dose: 44.0 mg/kg/injection, schedule: Q04DX003 (ip), vehicle: saline",108 % of control
same,T/C,"dose: 66.0 mg/kg/injection, schedule: Q04DX003 (ip), vehicle: saline",105 % of control
same,T/C,[10],93 % of control
same,T/C,"dose: 100.0 mg/kg/injection, schedule: Q04DX003 (ip), vehicle: saline",94 % of control and 96 % of control
same,T/C,[11],100 % of control
same,T/C,"dose: 200.0 mg/kg/injection, schedule: Q04DX003 (ip), vehicle: saline",101 % of control and 102 % of control
same,T/C,"dose: 400.0 mg/kg/injection, schedule: Q01DX009 (ip), vehicle: saline",95 % of control
same,T/C,"dose: 400.0 mg/kg/injection, schedule: Q04DX003 (ip), vehicle: saline",102 % of control
NS(=O)(=O)c1ccccc1C(=O)O,T/C,[10],96 % of control
same,T/C,[11],91 % of control
BrCCC[CH2][Pb]([c]1ccccc1)([c]1ccccc1)[c]1ccccc1,T/C,[12],102 % of control
same,T/C,[9],105 % of control
same,T/C,[13],111 % of control
same,T/C,[4],100 % of control
Nc1cccc2c1C(=O)c1c(c(O)c3ccccc3c1O)C2=O,T/C,[2],100 % of control
same,T/C,[3],96 % of control
same,T/C,[5],96 % of control
Cc1ccc(C(C#N)c2ccc(N)cc2)cc1 (stereo unspecified),T/C,"dose: 50.0 mg/kg/injection, schedule: Q01DX001 (ip), vehicle: saline",98 % of control
same,T/C,[6],101 % of control
same,T/C,[7],101 % of control
Nc1c(Br)cc2c(c1Br)Cc1cc(Cl)ccc1-2,T/C,[12],93 % of control
same,T/C,[9],98 % of control
same,T/C,[13],93 % of control
same,T/C,[4],93 % of control
CCCCCC1SC1CC1SC1CCCCCCCC(=O)N1CCOCC1 (stereo unspecified),T/C,[1],98 % of control
O=c1[nH]c(=O)n(C2OC(CO)C(O)C2O)c2scnc12 (stereo unspecified),T/C,"dose: 100.0 mg/kg/injection, schedule: Q01DX005 (ip), vehicle: saline",98 % of control
same,T/C,"dose: 200.0 mg/kg/injection, schedule: Q01DX005 (ip), vehicle: saline",100 % of control
CC1(C)CSCC(C)(C)/C(=N/O)C1=O,T/C,"dose: 50.0 mg/kg/injection, schedule: Q04DX002 (ip), vehicle: saline with Tween-80",101 % of control
same,T/C,"dose: 100.0 mg/kg/injection, schedule: Q04DX002 (ip), vehicle: saline with Tween-80",112 % of control
same,T/C,"dose: 200.0 mg/kg/injection, schedule: Q04DX002 (ip), vehicle: saline with Tween-80",101 % of control
CCOP(=O)(CI)Oc1ccc([N+](=O)[O-])cc1 (stereo unspecified),T/C,"dose: 0.5 mg/kg/injection, schedule: Q01DX001 (ip), vehicle: saline",100 % of control
same,T/C,"dose: 1.0 mg/kg/injection, schedule: Q01DX001 (ip), vehicle: saline",102 % of control
same,T/C,"dose: 2.0 mg/kg/injection, schedule: Q01DX001 (ip), vehicle: saline",100 % of control
NC(CSc1ccc([N+](=O)[O-])cc1Cl)C(=O)O (stereo unspecified),T/C,"dose: 75.0 mg/kg/injection, schedule: Q01DX001 (ip), vehicle: saline",100 % of control
same,T/C,"dose: 150.0 mg/kg/injection, schedule: Q01DX001 (ip), vehicle: saline",90 % of control
same,T/C,"dose: 300.0 mg/kg/injection, schedule: Q01DX001 (ip), vehicle: saline",92 % of control
